Experimental data reported in patent US20150290294A1, “METHODS FOR INHIBITING PLATELET AGGREGATION USING GLP-1 RECEPTOR AGONISTS” (priority 2012, published 2015).
Ends that are not written are not given here.

Experiments:
MEG-01 cells = assay: Intracellular cAMP EIA assay; format: cell-based, human
Method: An EIA kit (Cayman Chemicals) was employed to measure intracellular cAMP levels. […] 3-isobutyl-1-methylxanthine (IBMX) was added to each well at a concentration of 0.5 μM and allowed to incubate for 10 min at 37° C. to inhibit phosphodiesterase activity. As a positive control for cAMP generation in MEG-01 cells, PGI2 was added at a concentration of 0.02 ng/ml to control wells and incubated for 10 min at 37° C. PBS was used as a negative control. After incubation, cells were lysed by adding EDTA to a concentration of 10 mM. Lysed cells were transferred to 1.5 ml eppendorf tubes and boiled for 5 min at 95° C. Samples were spun down at 10000 xg for 15 min at 4° C. Supernatant was removed and frozen at −80° C. The cAMP EIA kit assay was then carried out according to manufacturer's instructions.
Given the limited specificity of Abs raised against GPCRs, RT-PCR was performed on RNA from MEG-01 cells with primers designed to yield full-length human GLP-1R cDNA.

platelets = conditions: associated with inhibitory effect on intracellular free calcium and tyrosine phosphorylation; cited from earlier work
[1] = test system: human gel-filtered platelets; assay: Thrombin-induced platelet aggregation (aggregometer); format: cell-based; conditions: for effect on thrombin-induced human platelet aggregation vs PBS control: 100 pM-1 uM (10^-10 to 10^-6 M); for effect on thrombin-induced human platelet aggregation vs PBS control / effect on human platelet aggregation after thrombin stimulation: 15 min 37 °C; for effect on human platelet aggregation after thrombin stimulation: 10 nM each, 0.5 U thrombin
Method: Platelets were then stimulated with thrombin and aggregation was measured using an aggregometer.

In the case of `CCCCC[C@H](O)/C=C/[C@@H]1[C@H]2C/C(=C/CCCC(=O)O)O[C@H]2C[C@H]1O` [PGI2, prostacyclin PGI2, reference compound], the “cAMP response (positive control)” value (MEG-01 cells; PGI2 0.02 ng/ml, 10 min 37 °C) is reported as 16 fold.
For `N[C@@H](CC(=O)N1CCn2c(nnc2C(F)(F)F)C1)Cc1cc(F)c(F)cc1F` [sitagliptin], the anti-platelet activity (platelets) is given as “exhibited anti-platelet activity”.
In the case of GLP-1(7-36), the “intracellular cAMP, qualitative” value (MEG-01 cells; 15 min incubation, 100 pM to 100 nM, n=3) is reported as “dose-dependent increase in cAMP”, the “effect on thrombin-induced human platelet aggregation vs PBS control” value ([1]; thrombin 0.125 U) is reported as “delayed and reduced” and the “effect on thrombin-induced human platelet aggregation vs PBS control” value ([1]; thrombin 0.125 U, listed as GLP-1) is reported as “delayed and reduced platelet aggregation”. The “effect on human platelet aggregation after thrombin stimulation” value (from here on “effect on human platelet aggregation”) [1] was “delayed human platelet aggregation” and the “total area under curve of aggregation” value ([1]; between 0.1 nM and 100 nM, thrombin 0.125 U, not significant, n=3) was “some inhibition of platelet activity”.
For “GLP-1(9-36) (EGTFTSDVSSYLEGQAAKEFIAWLVKGR-NH2)”, the “effect on human platelet aggregation” value [1] was “delayed human platelet aggregation” and the “effect on human platelet aggregation” value ([1]; listed as GLP-1(9-36)^NH2) was “inhibited human platelet aggregation, but to a lesser extent than GLP-1(7-36)^NH2”.
